# Assay results taken from ChEMBL document CHEMBL1146301, “Phenylglycine as a novel P2 scaffold in hepatitis C virus NS3 protease inhibitors” (Bioorg Med Chem, 2007).
# Starred links: 1 amine or outer side, 2 acyl side, 3 side chain; linkers in the order of their positions; H or OH if unused. Non-standard residues stand in square brackets, D forms with d. Residues, ends and D or L forms follow the SMILES beside them. Chg = N[C@H](C(=O)O)C1CCCCC1; Suc = O=C(CCC(=O)[*:2])[*:1]
# Tests used:
# [1] = Inhibition of HCV NS3 protease by FRET assay; set-up: species or system Hepacivirus hominis
# Hepatitis C virus [2] = test: Antiviral activity against HCV in replicon assay; format: functional, Hepacivirus hominis; conditions: read-out: ED50 (the source's name)
# NS3 = NS3 (Hepatitis C virus, UniProt A3EZJ3); test: Inhibition of HCV 1a NS3 protease; set-up: species or system Hepatitis C virus subtype 1a
# NS3, sequence (A3EZJ3 whole entry): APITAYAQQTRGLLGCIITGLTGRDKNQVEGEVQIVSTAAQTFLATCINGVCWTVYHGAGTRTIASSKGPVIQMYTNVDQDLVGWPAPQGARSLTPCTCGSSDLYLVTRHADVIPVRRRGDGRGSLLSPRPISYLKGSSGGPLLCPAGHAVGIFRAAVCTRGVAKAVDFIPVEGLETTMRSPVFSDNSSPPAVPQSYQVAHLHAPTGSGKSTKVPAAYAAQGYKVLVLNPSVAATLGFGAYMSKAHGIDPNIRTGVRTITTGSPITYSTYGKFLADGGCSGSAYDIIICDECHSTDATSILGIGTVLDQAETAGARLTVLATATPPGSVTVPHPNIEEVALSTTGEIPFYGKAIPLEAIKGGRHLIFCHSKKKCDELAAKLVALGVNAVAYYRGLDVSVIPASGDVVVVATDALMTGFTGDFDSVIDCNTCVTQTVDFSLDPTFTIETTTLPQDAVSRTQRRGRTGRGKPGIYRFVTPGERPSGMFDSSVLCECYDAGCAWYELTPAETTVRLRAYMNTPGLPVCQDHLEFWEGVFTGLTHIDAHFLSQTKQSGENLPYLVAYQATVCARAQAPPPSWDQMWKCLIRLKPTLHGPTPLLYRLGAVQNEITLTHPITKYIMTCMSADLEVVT
# Hepatitis C virus [3] = test: Inhibition of HCV 1b NS3 protease; set-up: species or system Hepatitis C virus subtype 1b
Structure (SMILES),Ki [1] [nM],EC50 (Hepatitis C virus [2]) [µM],Ki (NS3) [nM],Ki (Hepatitis C virus [3]) [nM]
COc1ccc2c(Oc3ccc([C@@H]4NC(=O)[C@@H](NC(=O)OC(C)(C)C)CCCCC/C=C\[C@@H]5C[C@@]5(C(=O)O)NC4=O)cc3)cc(-c3ccccc3)nc2c1,790,> 10,–,–
CC(C)(C)OC(=O)N[C@H]1CCCCC/C=C\[C@@H]2C[C@@]2(C(=O)NS(=O)(=O)C2CC2)NC(=O)[C@H](c2ccc(Oc3nc(Cl)cc4ccccc34)cc2)NC1=O,74,> 10,–,–
C=C[C@@H]1C[C@]1(NC(=O)[C@H](NC(=O)[C@@H](NC(=O)OC(C)(C)C)C(C)C)c1ccc(Oc2cc(-c3ccccc3)nc3cc(OC)ccc23)cc1)C(=O)NS(=O)(=O)c1ccccc1,400,> 10,–,–
COc1ccc2c(Oc3ccc([C@@H]4NC(=O)[C@@H](NC(=O)OC(C)(C)C)CCCCC/C=C\[C@@H]5C[C@@]5(C(=O)NS(=O)(=O)c5ccccc5)NC4=O)cc3)cc(-c3ccccc3)nc2c1,95,> 10,–,–
CCC[C@H](NC(=O)[C@@H](NC(=O)[C@@H](NC(=O)OC(C)(C)C)C(C)(C)C)c1ccc(Oc2cc(-c3ccccc3)nc3cc(OC)ccc23)cc1)C(=O)NS(=O)(=O)c1ccccc1,230,> 10,–,–
COc1ccc2c(Oc3ccc(C(NC(=O)[C@@H](NC(=O)OC(C)(C)C)C(C)(C)C)C(=O)N[C@@H](CC(F)F)C(=O)O)cc3)cc(-c3ccccc3)nc2c1 (stereo partly specified),2800,–,–,–
COc1ccc2c(Oc3ccc([C@H](NC(=O)[C@@H](NC(=O)OC(C)(C)C)C(C)(C)C)C(=O)NC4(C(=O)NS(=O)(=O)c5ccccc5)CC4)cc3)cc(-c3ccccc3)nc2c1,1200,> 10,–,–
C=C[C@@H]1C[C@]1(NC(=O)[C@@H]1C[C@@H](Oc2cc(-c3ccccc3)nc3cc(OC)ccc23)CN1C(=O)[C@@H](NC(=O)OC(C)(C)C)C(C)C)C(=O)NS(=O)(=O)c1ccccc1,0.76,–,–,–
COc1ccc2c(Oc3ccc([C@H](NC(=O)[C@@H](NC(=O)OC(C)(C)C)C(C)(C)C)C(=O)N[C@@H](CC(F)F)C(=O)NS(=O)(=O)C4CC4)cc3)cc(-c3ccccc3)nc2c1,780,> 10,–,–
CCC[C@H](NC(=O)[C@@H](NC(=O)[C@@H](NC(=O)OC(C)(C)C)C(C)C)c1ccc(O)cc1)C(=O)NS(=O)(=O)c1ccccc1,130000,–,–,–
CCC[C@H](NC(=O)[C@@H](NC(=O)[C@@H](NC(=O)OC(C)(C)C)C(C)C)c1ccc(Oc2cc(-c3ccccc3)nc3cc(OC)ccc23)cc1)C(=O)NS(=O)(=O)c1ccccc1,280,–,–,–
C=C[C@@H]1C[C@]1(NC(=O)[C@@H](NC(=O)[C@@H](NC(=O)OC(C)(C)C)C(C)C)c1ccc(Oc2cc(-c3ccccc3)nc3cc(OC)ccc23)cc1)C(=O)NS(=O)(=O)c1ccccc1,270,> 10,–,–
CC(C)(C)OC(=O)N[C@H]1CCCCC/C=C\[C@@H]2C[C@@]2(C(=O)NS(=O)(=O)C2CC2)NC(=O)[C@H](c2ccc(Oc3nc(-c4ccncc4)cc4ccccc34)cc2)NC1=O,240,–,–,–
C=C[C@@H]1C[C@]1(NC(=O)C(NC(=O)[C@@H](NC(=O)OC(C)(C)C)C(C)C)c1ccc(Oc2cc(-c3ccccc3)nc3cc(OC)ccc23)cc1)C(=O)O (stereo partly specified),2400,8.5,–,–
CC[C@@H](C)[C@H](NC(=O)[C@@H](NC(=O)CCC(=O)O)C1CCCCC1)C(=O)N[C@H](C(=O)N[C@@H](CS)C(=O)O)c1ccccc1,1000,–,–,–
CC(C)(C)OC(=O)N[C@H]1CCCCC/C=C\[C@@H]2C[C@@]2(C(=O)O)NC(=O)[C@H](c2ccc(Oc3nc(-c4ccncc4)cc4ccccc34)cc2)NC1=O,1300,–,–,–
CCC[C@H](NC(=O)[C@@H]1C[C@@H](Oc2cc(-c3ccccc3)nc3cc(OC)ccc23)CN1C(=O)[C@@H](NC(=O)OC(C)(C)C)C(C)C)C(=O)NS(=O)(=O)c1ccccc1,300,–,–,–
COc1ccc2c(Oc3ccc([C@@H]4NC(=O)[C@@H](NC(=O)OC(C)(C)C)CCCCC/C=C\[C@@H]5C[C@@]5(C(=O)NS(=O)(=O)C5CC5)NC4=O)cc3)cc(-c3ccccc3)nc2c1,76,4.6,–,–
CC(C)(C)OC(=O)N[C@H]1CCCCC/C=C\[C@@H]2C[C@@]2(C(=O)O)NC(=O)[C@H](c2ccc(Oc3nc(Cl)cc4ccccc34)cc2)NC1=O,1100,–,–,–
CC[C@H](C)[C@H](NC(=O)[C@@H](NC(=O)CCC(=O)O)C1CCCCC1)C(=O)N1CCC[C@H]1C(=O)N[C@@H](CS)C(=O)O (Suc-[Chg]IPC-OH),23000,–,–,–
COc1ccc2c(O[C@@H]3C[C@H]4C(=O)N[C@]5(C(=O)O)C[C@H]5/C=C\CCCCC[C@H](NC(=O)OC5CCCC5)C(=O)N4C3)cc(-c3csc(NC(C)C)n3)nc2c1 [CILUPREVIR],–,–,0.3,0.66

# Further lines, with some results ahead:
Ki [1] [nM],EC50 (Hepatitis C virus [2]) [µM],Ki (NS3) [nM],Structure (SMILES),Ki (Hepatitis C virus [3]) [nM]
1100,–,–,C=C[C@@H]1C[C@]1(NC(=O)[C@H](NC(=O)[C@@H](NC(=O)OC(C)(C)C)C(C)(C)C)c1ccc(Oc2nc(Cl)cc3ccccc23)cc1)C(=O)NS(=O)(=O)C1CC1,–
2600,–,–,C=C[C@@H]1C[C@]1(NC(=O)[C@@H](NC(=O)[C@@H](NC(=O)OC(C)(C)C)C(C)(C)C)c1ccc(Oc2cccc(Cl)n2)cc1)C(=O)NS(=O)(=O)C1CC1,–
230,> 10,–,C=C[C@@H]1C[C@]1(NC(=O)[C@@H](NC(=O)[C@@H](NC(=O)OC(C)(C)C)C(C)(C)C)c1ccc(Oc2cc(-c3ccccc3)nc3cc(OC)ccc23)cc1)C(=O)NS(=O)(=O)c1ccccc1,–
7000,–,–,C=C[C@@H]1C[C@]1(NC(=O)[C@@H](NC(=O)[C@@H](NC(=O)OC(C)(C)C)C(C)(C)C)c1ccc(Oc2ccccn2)cc1)C(=O)NS(=O)(=O)C1CC1,–
290,> 10,–,C=C[C@@H]1C[C@]1(NC(=O)[C@@H](NC(=O)[C@@H](NC(=O)OC(C)(C)C)C(C)(C)C)c1ccc(Oc2nc(-c3ccncc3)cc3ccccc23)cc1)C(=O)NS(=O)(=O)C1CC1,–
5400,–,–,C=C[C@@H]1C[C@]1(NC(=O)[C@@H](NC(=O)[C@@H](NC(=O)OC(C)(C)C)C(C)(C)C)c1ccc(OC)cc1)C(=O)NS(=O)(=O)C1CC1,–
34000,–,–,C=C[C@@H]1C[C@]1(NC(=O)[C@H](NC(=O)[C@@H](NC(=O)OC(C)(C)C)C(C)(C)C)c1ccc(OC)cc1)C(=O)NS(=O)(=O)C1CC1,–
200,–,–,C=C[C@@H]1C[C@]1(NC(=O)[C@@H](NC(=O)[C@@H](NC(=O)OC(C)(C)C)C(C)C)c1ccc(Oc2cc(-c3ccccc3)nc3cc(OC)ccc23)cc1)C(=O)NS(=O)(=O)C1CC1,–
180,> 10,–,C=C[C@@H]1C[C@]1(NC(=O)[C@@H](NC(=O)[C@@H](NC(=O)OC(C)(C)C)C(C)(C)C)c1ccc(Oc2cc(-c3ccccc3)nc3cc(OC)ccc23)cc1)C(=O)NS(=O)(=O)C1CC1,–
410,> 10,–,C=C[C@@H]1C[C@]1(NC(=O)[C@@H](NC(=O)[C@@H](NC(=O)OC(C)(C)C)C(C)(C)C)c1ccc(Oc2nc(Cl)cc3ccccc23)cc1)C(=O)NS(=O)(=O)C1CC1,–
